Here are results for 113 compounds from a melting point compilation (Tetko et al.).

For `CCCCCCCC[C@@H](O)CO`, the melting point lay within 60 to 62 °C.

`OCc1ccc(Cl)nc1` came in with a melting point of 48 °C.

In turn, `Cc1ccccc1-c1cc(-c2ccccc2)[nH]n1` returned a melting point of 107 to 108 °C.

Consider `NNC(=O)c1cnn(-c2ccccc2)c1C(F)(F)F`, for which the melting point is 153 to 155 °C.

`N#Cc1cc(S(=O)(=O)Cl)ccc1F` gave a melting point of 69 °C.

Turning to `CCCc1cccc(O)c1`, the melting point was 26 °C.

In the case of `CC(=O)OC(C(=O)c1ccccc1)c1ccccc1` (stereo not drawn), the melting point was determined as 82 °C.

`Oc1cc(O)cc(-c2cc(O)cc(O)c2)c1` showed a melting point of 310 °C.

`CCCCCCCCCCCCCCCCCCCCCCCCCCCCCCCCCC` showed a melting point of 72.6 °C.

Turning to `O=[N+]([O-])c1cc([N+](=O)[O-])c(C=C(Cl)c2ccccc2)cc1C=C(Cl)c1ccccc1`, the melting point amounted to 145 °C.

The compound `CC12CC3(C)CC(C)(C1)CC(Br)(C2)C3` returned a melting point of 101 to 102 °C.

Take `CCCCC/C=C\Br`: the melting point was -98 °C.

Compound `CCC(CC)(CO)CO` showed a melting point of 61.5 °C.

`CC(=O)N1CCC(C(=O)Cl)CC1`: the melting point worked out at 132 °C.

`Cc1ccc(F)cc1` yielded a melting point of -56 °C.

With `Cc1nc(C2CCN(C(=O)OC(C)(C)C)CC2)sc1C=O`, the melting point came out at 220 °C.

The compound `CN[C@@H](Cc1c[nH]c2ccccc12)C(=O)O` gave a melting point of 295 °C.

In turn, `COc1ccccc1-c1ccc(C=CC(=O)c2ccccc2)o1` displayed a melting point of 98 to 99 °C.

Regarding `COC1OC(COC(=O)C(C)(C)C)C(O)C(OC(=O)C(C)(C)C)C1O` (stereo not drawn), the melting point worked out at 89.8 °C.

Turning to `N=C(N)SCCCS(=O)(=O)O`, the melting point lay in the range of 240 to 248 °C.

For the compound `CC(=O)c1csc(-c2ccc(C(F)(F)F)cc2)n1`, the melting point was 66 °C.

Compound `NC(CP(=O)(O)O)C(=O)O` (stereo not drawn) showed a melting point of 227 to 229 °C.

In turn, `CC(=O)N(C)c1ccccc1` yielded a melting point of 103 °C.

As to `COC(=O)Cc1nc(-c2ccccc2)sc1C`, the melting point lay in the range of 42 to 44 °C.

Regarding `O=C(O)Cc1ccccc1F`, the melting point was 63 °C.

`COc1ccccc1/C=C/C(=O)O` registered a melting point of 185 °C.

`CC(C)CCCC(C)C1CCC2C3CC(=O)C4CC(O)CCC4(C)C3CCC12C` (stereo not drawn) registered a melting point of 140 to 142 °C.

In the case of `CCCCCCCCCCCCCCCCCC(C)C`, the melting point came to 18 °C.

Regarding `O=[N+]([O-])c1ccc(C2Nn3c(nnc3-c3cccc([N+](=O)[O-])c3)S2)cc1` (stereo not drawn), the melting point was 205 °C.

For `Nc1nc(N)nc(NC2CC2)n1`, the melting point was found to be 225 °C.

For the compound `CCCCCCC(=O)c1ccccc1`, the melting point was found to be 16.4 °C.

Consider `O=[N+]([O-])c1ccc(NN=Cc2cccc3c(Br)ccc([N+](=O)[O-])c23)cc1`, for which the melting point turned out to be 205 °C.

As to `OC1CCSCC1`, the melting point was in the range of 50 to 51 °C.

As to `O=c1c2ccccc2cc2ccccn12`, the melting point turned out to be 166 °C.

`CC(=O)N1c2cc3[nH]c(C)cc3cc2CC1C` (stereo not drawn) registered a melting point of 275 °C.

Compound `C=C1C(=CC=C2CCCC3(C)C2CCC3C(C)CCCC(C)C)CC(O)CC1O` (stereo not drawn) gave a melting point of 136 °C.

`CC(C)CCCC(C)C1CCC2C3CC=C4C=CCCC4(C)C3CCC12C` (stereo not drawn) had a melting point of 80 °C.

With `NC(=O)c1sccc1Br`, the melting point is 78 °C.

On to `O=C(O)c1cc(Cl)cc(Cl)c1Cl`, for which the melting point is 166 °C.

`CCCCCCCCCCCCCCCCCCOC(=O)CCc1cc(C(C)(C)C)c(O)c(C(C)(C)C)c1` gave a melting point of 52.5 °C.

In turn, `CCCCCCCOO` came in with a melting point of 35.5 °C.

In the case of `NC(=O)OCC(Cl)(Cl)Cl`, the melting point came to 64 °C.

`NCS(=O)(=O)O` yielded a melting point of 180 to 185 °C.

Turning to `CC(C)=CCC(C#N)(CC=C(C)C)C(=O)O`, the melting point fell in the range of 70 to 71 °C.

For `C=CCC1(CC=C)C(=O)NC(=O)NC1=O`, the melting point lay within 172 to 173 °C.

With `O=C(O)CCCCCCCCCCCO`, the melting point stood at 86.5 °C.

`S=C(NCCc1ccccc1)Nc1ccccc1`: the melting point is 135 °C.

Turning to `O=C(O)c1nn(Cc2ccc(Cl)cc2Cl)c2ccccc12`, the melting point worked out at 207 °C.

Compound `O=c1[nH]nc([N+](=O)[O-])c(Cl)c1Cl` came in with a melting point of 184 to 186 °C.

Turning to `Cc1nc2nn(C)cc2c(=O)n1N`, the melting point fell in the range of 147 to 148 °C.

The compound `O=C1CN=C(c2ccccc2F)c2cc(Cl)ccc2N1CC1CC1` came in with a melting point of 118 °C.

For the compound `CC1=NN(c2ccccc2)C(=O)C1C(=O)c1ccccc1` (stereo not drawn), the melting point lay within 90 to 92 °C.

`COc1cccc(CC(C)=O)c1` had a melting point of 258 to 260 °C.

Consider `Cc1c(O)cccc1[N+](=O)[O-]`, for which the melting point came out at 150 °C.

In turn, `N#Cc1ccc(F)c([N+](=O)[O-])c1` gave a melting point of 92 °C.

`S=c1nnc(-c2ccccc2)c(Nc2ccc(Br)cc2)[nH]1` had a melting point of 359 °C.

Take `CC12CCC(C(Br)(CBr)C1=O)C2(C)C` (stereo not drawn): the melting point stood at 109 °C.

For the compound `OC12Cc3ccccc3C(O)(Cc3ccccc31)O2`, the melting point is 160 to 167 °C.

For `O=C(O)CSc1ccnc2cc(Cl)ccc12`, the melting point fell in the range of 223 to 225 °C.

`Cc1c(C)c(C)c(Br)c(Br)c1C` gave a melting point of 72 °C.

Regarding `NC(=S)C1COc2ccccc2O1` (stereo not drawn), the melting point is 180 to 183 °C.

`CCN(CC)c1cc(Cl)c2nonc2c1[N+](=O)[O-]` displayed a melting point of 132 to 135 °C.

As for `N#C/C(=N\Nc1cccc(O)c1)c1nc2ccccc2s1`, the melting point was found to be 175 °C.

The compound `Oc1ccc(-c2nnc3n2NC(c2ccccc2O)S3)cc1` (stereo not drawn) showed a melting point of 241 °C.

On to `CCCCSCCC(N)C(=O)O` (racemic), for which the melting point lay within 238 to 243 °C.

In turn, `CCCCC(CC)COC(C)=O` (stereo not drawn) displayed a melting point of -45 °C.

Take `CCOC(=O)C(O)C(O)C(=O)OCC` (stereo not drawn): the melting point is 17 °C.

On to `CCCCCCCCCCCCC1=C(OC(C)=O)C(=O)c2ccccc2C1=O`, for which the melting point amounted to 59.6 °C.

`CSc1cnccn1` yielded a melting point of 44 to 47 °C.

Compound `Cc1ccc(I)cc1` returned a melting point of 37.8 °C.

In the case of `O=S(=O)(Cl)c1ccc(-c2nsc(Cl)n2)s1`, the melting point was in the range of 71 to 74 °C.

For `O=C1c2ccccc2C(=O)N1c1ccccc1`, the melting point worked out at 210 °C.

For `Cn1c(=O)c(C2=NNC(=O)C2=NNc2cc(Cl)ccc2Cl)c(O)c2ccccc21`, the melting point turned out to be 284 °C.

Turning to `CC1=C(c2ccccc2)c2ccccc2C1`, the melting point lay within 58 to 58.5 °C.

For `Cc1cc(C)c2c(=O)[nH]n(C)c2n1`, the melting point is 216 °C.

Regarding `O=C(O)C1(c2ccc(Cl)cc2Cl)CC1`, the melting point lay in the range of 140 to 147 °C.

Compound `Clc1ccc(Cn2c(CN3CCCC3)nc3ccccc32)cc1` came in with a melting point of 167 °C.

`CN(c1c(F)c(F)c(-c2c(F)c(F)c(F)c(F)c2F)c(F)c1F)[N+](=O)[O-]`: the melting point stood at 140 °C.

The compound `CC(C)OC(=O)C1(S(=O)(=O)c2ccc(Cl)cc2)CCCC1` had a melting point of 92.5 °C.

As to `O=[N+]([O-])c1ccc(-n2ncc3cccnc32)c([N+](=O)[O-])c1`, the melting point lay in the range of 181 to 187 °C.

In turn, `Cc1ccc(C(=O)c2ccccc2N)cc1` showed a melting point of 91 to 94 °C.

In turn, `NS(=O)(=O)c1cc2c(s1)C(O)CCS2=O` (stereo not drawn) displayed a melting point of 190 °C.

Turning to `CC(=O)OC(C)=O`, the melting point was -73 °C.

As for `CC(=O)N1N=C(c2ccc3ccccc3c2)CC1c1ccccc1Cl` (stereo not drawn), the melting point is 173 °C.

Turning to `O=C(O)c1cccc(S(=O)(=O)Nc2ccccc2)c1`, the melting point was 236 °C.

Compound `FC(F)(F)c1cc(C(F)(F)F)c(C(F)(F)F)cc1C(F)(F)F` registered a melting point of 73 to 74 °C.

`O=CC(C=O)c1ccncn1`: the melting point lay in the range of 227 to 232 °C.

`CC1=CC[C@@H]2[C@@H]3CCC4CC(=O)CC[C@]4(C)[C@H]3CC[C@]12C` (stereo partly drawn) had a melting point of 140 to 141 °C.

As for `O=[N+]([O-])CCO`, the melting point was -80 °C.

For the compound `CC(C)SC(C)C`, the melting point was -78.1 °C.

The compound `C=Cc1ccc(OCc2ccccc2)c(OC)c1` registered a melting point of 48 to 55 °C.

The compound `CC(C)(CO)NCC(O)CS(=O)(=O)O` (stereo not drawn) came in with a melting point of 215 to 225 °C.

`OCC(Br)=C(Br)CO` gave a melting point of 111 to 116 °C.

Take `O=C1OCc2cc(Br)ccc21`: the melting point fell in the range of 162 to 166 °C.

Compound `N#C/C(=N\Nc1c(Br)cc(Br)cc1Br)c1nc2ccccc2s1` had a melting point of 179 °C.

For the compound `O=Cc1cc(Br)cc(OC(F)(F)F)c1O`, the melting point was found to be 46 °C.

For `COc1ccccc1C(N)=O`, the melting point worked out at 129 °C.

Consider `O=C(C(=S)Nc1ccc(Br)cc1)c1ccccc1`, for which the melting point is 118 °C.

Compound `CC12CCC(O)CC1CCC1C2CCC2(C)C1CCC2(C)O` (stereo not drawn) came in with a melting point of 164 °C.

Take `COC(=O)C=Cc1ccc([N+](=O)[O-])c(C=CC(=O)OC)c1`: the melting point came out at 200 °C.

`NNC(N)=S` displayed a melting point of 183 °C.

Compound `COC(=O)[C@@H]1CCCN1C(=O)COC(=O)c1ccccc1` came in with a melting point of 72.5 °C.

The compound `CC(=O)c1ccc(-n2ccnc2)cc1` displayed a melting point of 116 °C.

Turning to `OCc1cccc(Cl)c1Cl`, the melting point lay within 88 to 94 °C.

Take `O=C1Nc2ccccc2C12OCCO2`: the melting point was in the range of 125 to 128 °C.

For `O=C(O)CN(CC(=O)O)Cc1cc2c(c(O)c1O)C(=O)c1ccccc1C2=O`, the melting point is 190 °C.

`O=C(OC(=O)C(F)(F)C(F)(F)C(F)(F)F)C(F)(F)C(F)(F)C(F)(F)F` registered a melting point of -43 °C.

The compound `CC(=O)Nc1cccc(N)c1C(=O)O` returned a melting point of 184 °C.

In the case of `ClCCc1ccccc1`, the melting point was -60 °C.

The compound `Nc1c([N+](=O)[O-])ccc2ncccc12` came in with a melting point of 272 to 273 °C.

Consider `CC(=O)C1(O)CCC2C3CCC4CC(O)CCC4(C)C3CCC21C` (stereo not drawn), for which the melting point was 265 °C.

`CC(C(=O)O)c1ccc(C2CCCC(=NO)C2)cc1` (stereo not drawn) returned a melting point of 178 °C.

With `CCCCCC(=O)c1ccc(O)cc1O`, the melting point came to 57 °C.

In general, melting point refers to the temperature of the solid-liquid transition.
